ChEMBL document CHEMBL1150988, “-lactam-recognizing enzymes exhibit different structural specificity in acyclic amide and ester substrates: a starting point in -lactamase evolution?” (Bioorg Med Chem Lett, 1994)
Values joined by “and” are separate entries in the source; they are usually repeats but may differ in a detail not shown here. Equal values may be shown once.

Legend:
Streptomyces [1] = experiment: Km against Streptomyces R61 DD-peptidase
[2] = Ratio for Kcat to Km against Streptomyces R61 DD-peptidase; set-up: unit not given here
Streptomyces [3] = experiment: Kcat against Streptomyces R61 DD-peptidase
[4] = target: Beta-lactamase (Enterobacter cloacae) (UniProt P05364); experiment: Kcat against P99 beta-lactamase
Beta-lactamase (Enterobacter cloacae), sequence (P05364 21-381 limits assumed): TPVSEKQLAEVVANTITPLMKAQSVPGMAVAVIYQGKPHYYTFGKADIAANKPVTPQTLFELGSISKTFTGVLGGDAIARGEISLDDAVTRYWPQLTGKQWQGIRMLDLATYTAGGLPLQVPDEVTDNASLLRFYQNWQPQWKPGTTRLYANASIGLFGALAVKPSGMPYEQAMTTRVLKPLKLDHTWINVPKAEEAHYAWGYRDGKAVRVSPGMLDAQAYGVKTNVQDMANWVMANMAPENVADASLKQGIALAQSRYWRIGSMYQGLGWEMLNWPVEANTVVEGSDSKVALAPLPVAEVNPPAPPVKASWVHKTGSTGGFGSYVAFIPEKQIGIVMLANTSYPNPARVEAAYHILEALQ

[5] = Ratio for Kcat to Km was determined; set-up: unit not given here

## C[C@H](NC(=O)Cc1ccccc1)C(=O)N[C@H](C)C(=O)O
Streptomyces [1]
  Km: 7 mM
[2]
  Ratio: 286
Streptomyces [3]
  k cat: 2 s⁻¹

## C[C@@H](OC(=O)CNC(=O)Cc1ccccc1)C(=O)O
Streptomyces [1]
  Km: 11.8 mM
[4]
  k cat: 27.3 s⁻¹
[2]
  Ratio: 366
Streptomyces [3]
  k cat: 4.3 s⁻¹
[5]
  Ratio: 3390

## C[C@@H](SC(=O)CNC(=O)Cc1ccccc1)C(=O)O
Streptomyces [1]
  Km: 0.63 mM
[4]
  k cat: 22 s⁻¹
[2]
  Ratio: 9660
Streptomyces [3]
  k cat: 6.1 s⁻¹
[5]
  Ratio: 6670

## CC(=O)NCCCC[C@H](NC(C)=O)C(=O)NCC(=O)S[C@H](C)C(=O)O
Streptomyces [1]
  Km: 2 mM
[4]
  k cat: 5.1 s⁻¹
[2]
  Ratio: 5850
Streptomyces [3]
  k cat: 11.9 s⁻¹
[5]
  Ratio: 763

## C[C@H](NC(=O)Cc1ccccc1)C(=O)O[C@H](C)C(=O)O
Streptomyces [1]
  Km: 6.8 mM
[4]
  k cat: 29 s⁻¹
[2]
  Ratio: 3630
Streptomyces [3]
  k cat: 24.6 s⁻¹
[5]
  Ratio: 1240

## CC(=O)NCCCC[C@H](NC(C)=O)C(=O)NCC(=O)N[C@H](C)C(=O)O
Streptomyces [1]
  Km: 15 mM
[2]
  Ratio: 1.3
Streptomyces [3]
  k cat: 0.019 s⁻¹

## CC(=O)NCCCC[C@H](NC(C)=O)C(=O)NCC(=O)O[C@H](C)C(=O)O
Streptomyces [1]
  Km: 9.8 mM
[4]
  k cat: 17.8 s⁻¹
[2]
  Ratio: 1060
Streptomyces [3]
  k cat: 10.4 s⁻¹
[5]
  Ratio: 493

## CC(=O)NCCCC[C@H](NC(C)=O)C(=O)N[C@@H](C)C(=O)N[C@H](C)C(=O)O
Streptomyces [1]
  Km: 10 mM and 7 mM
[2]
  Ratio: 5500 and 7890
Streptomyces [3]
  k cat: 55 s⁻¹

## CC(=O)NCCCC[C@H](NC(C)=O)C(=O)N[C@@H](C)C(=O)O[C@H](C)C(=O)O
Streptomyces [1]
  Km: 50.6 mM
[4]
  k cat: 63 s⁻¹
[2]
  Ratio: 1300
Streptomyces [3]
  k cat: 65.9 s⁻¹
[5]
  Ratio: 2340
